Laboratory results taken from patent US20250144186A1, “NOVEL THERAPEUTIC USES OF GARDNERELLA ENDOLYSINS” (priority 2022, published 2025).
Converted amounts (≈) assume the structure as drawn. “And” between values parts separate entries of the source, which are not always exact repeats. Equal values may be shown once. Read-outs that look alike come from different tables or passages of the source.

Key:
All Gardnerella = test: MIC assessment in suspension, panel of 22 strains; assay type: cell-based, Gardnerella spp.
Description: (§1) The minimum inhibitory concentration (MIC), which is a standard measure of the activity of antimicrobials, was determined according to the Clinical and Laboratory Standards Institute protocol (2018) Methods for Antimicrobial Susceptibility Testing of Anaerobic Bacteria (Carpenter et al., 2018). […] Controls for growth in the absence of antimicrobials were also included. OD600 was recorded by a microplate reader (Tecan, Grodig, Austria) after incubation at 37° C. for 48 h or, for some fast-growing strains, after incubation for 24 h. Absence of growth was defined as OD600≤0.14. […] MIC readout and MBC99.5 spotting were performed after 72 h incubation for H2B10B11.
(§2) However, topical intravaginal antibiotic administration is recommended for BV therapy, which allows to reach concentrations of active ingredients in the mg/mL range. […] Abbreviations: n.d., not determined; SJHB, St. Jan Hospital Bruges.
(§3) MIC90 is defined as the MIC value for 90% of the tested strains. For PM-477 (H2B10), the resistance breakpoint is not defined, therefore a “% resistant” is not defined (n.d.).

[1] = test system: passaged G. vaginalis biofilm; test: MBEC on biofilms of passaged strains; assay type: cell-based, Gardnerella vaginalis
Description: Gardnerella spp. (see figures for strain specification) was resuspended in brain heart infusion broth supplemented with 2% (w/v) gelatin, 0.5% yeast extract (w/v), 0.1% starch (w/v) and 0.25% glucose (w/v) (sBHIG). Passaged strains were resuspended in unbuffered NYCB supplemented with 1% glucose (w/v) (sNYCB). The OD600 was set to 0.1 (approx. 10^7-10^8 CFU/mL) and the cell suspension was diluted 1:10 in growth medium as input for biofilm formation. A total of 200 μL of the respective bacterial suspensions was added to 96-well flat bottom plates (tissue-culture treated, Sigma-Aldrich). The biofilms were grown under anaerobic conditions at 37° C. for 40 to 72 hours, depending on the isolate. Subsequently, the supernatant was removed, and the biofilm was treated with antimicrobials dissolved in sBHIG (at pH 5 for treatment with PM-477 (H2B10), and unbuffered for treatment with antibiotics) in 100 μL and incubated anaerobically at 37° C. for another 24 hours. After the treatment, the biofilms were washed twice with 200 μL 1x PBS and dissolved by vigorous pipetting (40x up and down). Serial dilutions of the dissolved cells were spotted on chocolate agar plates. The plates were incubated anaerobically for two to three days and the minimum biofilm eradication concentration (MBEC) of the endolysin or the antibiotics in use were calculated.
(§4) All MICs determined after 48 h of incubation.

Gardnerella vaginalis = test: microbe, parasite or virus in culture; assay type: cell-based; conditions: for MIC before passaging: 48 h incubation
Description: as §1, §2, §3

[2] = test system: G. vaginalis (ATCC 14018); test: Bactericidal effect in suspension by quantitative plating, wild type and MDZ-passaged; assay type: cell-based, Gardnerella vaginalis; conditions: for reduction of a suspension of 108 CFU/mL: 10 μg/mL, 1 h
Description: Bacterial suspensions (OD600 of 0.1, corresponding to approximately 10^7-10^8 CFU/mL) were prepared by scraping the cells from confluently grown agar plates and diluting them into NYCB+10% HS, pH 5.5. Reactions were performed in triplicate by mixing ten μl of endolysin (200 μg/mL) with 90 μL bacterial suspension in the wells of a 96-well plate. Ten UL MES buffer without the endolysin was used as a control. […] Tenfold dilution series (10^−1 to 10^−6) of the cell reaction mixtures were prepared in NYCB+10% HS and 2 μL of each dilution were spotted onto Choc agar plates. After anaerobic incubation at 37° C. for 48 h, colonies were counted, CFU/mL calculated, and the log10 reduction compared to MES buffer treated control was determined.
as §4

passaged G. piotii = test: MIC on strains passaged with MDZ-OH; assay type: cell-based, Gardnerella piotii
Description: as §1, with “H2B10B11. MBC99.5 is the minimum concentration of an antibacterial agent that results in bacterial death of all cells in suspension up to a defined limit of detection, resulting in killing of at least 99.5% of bacteria.” for “H2B10B11.”
The final volume of the reaction was 100 µL and the reactions were performed in triplicate in 384-well plates. The OD600 was measured using a microplate reader (Tecan, Grodig, Austria) to generate timepoint 0 h baseline values. […] In each round, the input CFU/mL was determined by quantitative plating.
(§5) The susceptibility of Gardnerella strains before and after 8 to 9-times passaging with sub-MIC concentrations of MZD or MDZ-OH is shown in Table 4 below. All MICs determined after 48 h of incubation.

passaged G. swidsinskii = test: MIC on strains passaged with MDZ-OH; assay type: cell-based, Gardnerella swidsinskii; conditions: for MIC: Gardnerella swidsinskii, 48 h; for MIC passaged: 48 h incubation
Description: as §1, with “H2B10B11. MBC99.5 is the minimum concentration of an antibacterial agent that results in bacterial death of all cells in suspension up to a defined limit of detection, resulting in killing of at least 99.5% of bacteria.” for “H2B10B11.”
The final volume of the reaction was 100 µL and the reactions were performed in triplicate in 384-well plates. The OD600 was measured using a microplate reader (Tecan, Grodig, Austria) to generate timepoint 0 h baseline values. The reactions were incubated anaerobically for 24 h, then the OD600 was measured again, and the MIC was measured as the lowest concentration with OD600<0.14. […] This process was repeated for a maximum of 25 rounds. In each round, the input CFU/mL was determined by quantitative plating.
as §5

[3] = G. vaginalis (ATCC 14018T) passaged with MDZ
[4] = G. vaginalis (UGent 09.07) passaged 8 times with MDZ-OH
[5] = G. vaginalis (UGent BV50) passaged with MDZ-OH
[6] = Gardnerella vaginalis, N=8 strains

Molecule: Cc1ncc([N+](=O)[O-])n1CCO [MDZ, metronidazole]
- N resistant (%) (All Gardnerella; N=22, resistance ≥32 μg/mL MDZ): 59% and 60%
- N resistant (All Gardnerella; N=22, resistance ≥32 μg/mL MDZ, ≥8 μg/mL CLI): 13
- MIC90 (All Gardnerella; N=22 strains): >256 µg/mL
- MIC90 (All Gardnerella; N=22 strains, read-out: MIC90): > 256 µg/mL
- MBEC passaged [1, 3]: >2048 µg/mL
- MBEC passaged [1, 4]: >2048 µg/mL
- MBEC passaged [1, 5]: >2048 µg/mL
- MIC90 (Gardnerella vaginalis; Gardnerella vaginalis): 64 µg/mL (≈ 374 µM)
- MIC (Gardnerella vaginalis; Gardnerella vaginalis, 48 h, read-out: MIC before passaging, G. vaginalis (ATCC 14018T), 48 h incubation): 8 µg/mL (≈ 46.7 µM)
- MIC (Gardnerella vaginalis; Gardnerella vaginalis, 48 h, read-out: MIC before passaging, G. vaginalis (UGent 09.07), 48 h incubation): 64 µg/mL (≈ 374 µM)
- MIC (Gardnerella vaginalis; Gardnerella vaginalis, 48 h, read-out: MIC before passaging, G. vaginalis (UGent BV50), 48 h incubation): 32 µg/mL (≈ 187 µM)
- MBC (Gardnerella vaginalis; Gardnerella vaginalis, ATCC14018, 24 h, read-out: MBC99.5, G. vaginalis (Gv9) ATCC 14018(T), reduces CFU by 99.5% within 24 h): 16 µg/mL (≈ 93.5 µM)
- MIC (Gardnerella vaginalis; Gardnerella vaginalis, ATCC14018, G. vaginalis (Gv9) ATCC 14018(T), suspension): 8 µg/mL (≈ 46.7 µM)
- MIC (Gardnerella vaginalis; Gardnerella vaginalis, G. vaginalis (BV50) UGent BV50.1, suspension): 32 µg/mL (≈ 187 µM)
- MIC (Gardnerella vaginalis; Gardnerella vaginalis, G. vaginalis (FB049) UGent FB049-01, suspension): 16 µg/mL (≈ 93.5 µM)
- MIC (Gardnerella vaginalis; Gardnerella vaginalis, G. vaginalis (FB061) UGent FB061-03, suspension, read-out: MIC): 8 µg/mL (≈ 46.7 µM)
- MBC (Gardnerella vaginalis; Gardnerella vaginalis, G. vaginalis (FB061) UGent FB061-03, read-out: MBC99.5): 32 µg/mL (≈ 187 µM)
- MIC (Gardnerella vaginalis; Gardnerella vaginalis, G. vaginalis (Gv1) UGent 09.07, suspension, read-out: MIC): 64 µg/mL (≈ 374 µM)
- MBC (Gardnerella vaginalis; Gardnerella vaginalis, G. vaginalis (Gv1) UGent 09.07, read-out: MBC99.5): 512 µg/mL (≈ 2990 µM)
- MIC (Gardnerella vaginalis; Gardnerella vaginalis, G. vaginalis (Gv5) UGent 09.01, suspension, read-out: MIC): 8 µg/mL (≈ 46.7 µM)
- MBC (Gardnerella vaginalis; Gardnerella vaginalis, G. vaginalis (Gv5) UGent 09.01, read-out: MBC99.5): 512 µg/mL (≈ 2990 µM)
- MIC (Gardnerella vaginalis; Gardnerella vaginalis, G. vaginalis (Gv8) UGent 25.49, suspension, read-out: MIC): 8 µg/mL (≈ 46.7 µM)
- MBC (Gardnerella vaginalis; Gardnerella vaginalis, G. vaginalis (Gv8) UGent 25.49, read-out: MBC99.5): 32 µg/mL (≈ 187 µM)
- MIC Range (Gardnerella vaginalis; [6]): 8 to 64 µg/mL
- MBC (Gardnerella vaginalis; Gardnerella vaginalis, read-out: MBC99.5, G. vaginalis (BV111) UGent BV111.5): 64 µg/mL (≈ 374 µM)
- MBC (Gardnerella vaginalis; Gardnerella vaginalis, read-out: MBC99.5, G. vaginalis (FB049) UGent FB049-01): 64 µg/mL (≈ 374 µM)
- reduction compared to the buffer treated control ([2]; MDZ-passaged G. vaginalis (ATCC 14018), 2 mg/ml, 24 h): 2 log
- loss in viability ([2]; MDZ-passaged G. vaginalis (ATCC 14018), up to 2 mg/ml, 1 and 5 hours): without any loss in viability
- MIC (passaged G. piotii; Gardnerella piotii, 48 h, read-out: MIC passaged): > 2050 µg/mL
- MIC (passaged G. swidsinskii; read-out: MIC passaged, G. swidsinskii (GS 9838-1T) passaged with MDZ-OH, 48 h incubation): > 512 µg/mL
- MIC (passaged G. swidsinskii; read-out: MIC passaged, G. swidsinskii (UGent BV 7.1) passaged with MDZ-OH, 48 h incubation): > 2050 µg/mL

B1: PM-477: genetically engineered recombinant Gardnerella-specific endolysin, amino acid sequence SEQ ID NO: 1, His-tag cleaved off (protein)
chain: SKRGIDVSEWQGDIDFNAVKASGVEFVIIRAGYGIGCKDKWFEQNYRKAKTCGLDVGAYWYSYANSGFEAAEEAQSCVNMLSGKSFEYPVYFDLEEKSQLNRGRAFCDSLITGFCNKLESCGYYAGFYTSLSTANNLVSAHVRNRYALWIAQWNTHCSYQGSYGLWQYSSSGSVPGVAGRVDMDYAYVDYPSIIKNVGLNGYKNGGSYTAPQISSIDEVAREVINGDWGNGNERKQRLTSAGYDYASVQNKVNELLGVKAYRKSVDELAREVIRGTWGNGSTRKQRLTQAGYDYNAVQKRVNELL
modifications: His-tag cleaved off; H2B10
- MIC90 (All Gardnerella; N=22 strains): 1 µg/mL
- MIC Range (All Gardnerella; N=22 strains, listed as PM-477 (H2B10)): <0.03-1^ μg/mL
- MBEC passaged [1, 3]: 2 to 8 µg/mL
- MBEC passaged [1, 4]: 2 to 4 µg/mL
- MBEC passaged [1, 5]: 1 to 8 µg/mL
- MIC before passaging (Gardnerella vaginalis; G. vaginalis (ATCC 14018T)): 0.06 µg/mL
- MBC99.5 (Gardnerella vaginalis; G. vaginalis (BV50) UGent BV50.1): 1 µg/mL
- MIC (Gardnerella vaginalis; G. vaginalis (BV50) UGent BV50.1, suspension): 0.5 µg/mL
- MBC99.5 (Gardnerella vaginalis; G. vaginalis (BV111) UGent BV111.5): 0.5 µg/mL
- MIC (Gardnerella vaginalis; G. vaginalis (BV111) UGent BV111.5, suspension): 0.25 µg/mL
- MBC99.5 (Gardnerella vaginalis; G. vaginalis (FB049) UGent FB049-01): 0.25 µg/mL
- MIC (Gardnerella vaginalis; G. vaginalis (FB049) UGent FB049-01, suspension): 0.25 µg/mL
- MBC99.5 (Gardnerella vaginalis; G. vaginalis (FB061) UGent FB061-03): 2 µg/mL
- MIC (Gardnerella vaginalis; G. vaginalis (FB061) UGent FB061-03, suspension): 0.5 µg/mL
- MBC99.5 (Gardnerella vaginalis; G. vaginalis (Gv1) UGent 09.07): 1 µg/mL
- MIC (Gardnerella vaginalis; G. vaginalis (Gv1) UGent 09.07, suspension): 0.25 µg/mL
- MBC99.5 (Gardnerella vaginalis; G. vaginalis (Gv5) UGent 09.01): 0.125 µg/mL
- MIC (Gardnerella vaginalis; G. vaginalis (Gv5) UGent 09.01, suspension): <0.03 µg/mL
- MBC99.5 (Gardnerella vaginalis; G. vaginalis (Gv8) UGent 25.49): 0.125 µg/mL
- MIC (Gardnerella vaginalis; G. vaginalis (Gv8) UGent 25.49, suspension): 0.03 µg/mL
- MIC (Gardnerella vaginalis; G. vaginalis (Gv9) ATCC 14018(T), suspension): 0.06 µg/mL
- MBC99.5 (Gardnerella vaginalis; G. vaginalis (Gv9) ATCC 14018(T), reduces CFU by 99.5% within 24 h): 0.25 µg/mL
- MIC before passaging (Gardnerella vaginalis; G. vaginalis (UGent 09.07)): 0.25 µg/mL
- MIC before passaging (Gardnerella vaginalis; G. vaginalis (UGent BV50)): 0.5 µg/mL
- MIC Range (Gardnerella vaginalis; [6]): <0.03 to 0.5 µg/mL
- MIC90 (Gardnerella vaginalis; Gardnerella vaginalis, N=8 strains, MIC value for 90% of the tested strains): 0.5 µg/mL
- reduction of a suspension of 108 CFU/mL ([2]; MDZ-passaged G. vaginalis (ATCC 14018)): 2.8 log units
- reduction of a suspension of 108 CFU/mL ([2]; ancestral G. vaginalis (ATCC 14018)): 3.0 log units
- MIC passaged (passaged G. piotii; G. piotii (UGent 18.01T) passaged with MDZ-OH, 48 h incubation): 2 µg/mL
- MIC passaged (passaged G. swidsinskii; G. swidsinskii (GS 9838-1T) passaged with MDZ-OH): 0.06 µg/mL
- MIC passaged (passaged G. swidsinskii; G. swidsinskii (UGent BV 7.1) passaged with MDZ-OH): 0.06 µg/mL
